In general, TGI refers to the concentration giving total growth inhibition. The term GI50 denotes the concentration at which growth is held to half of that of the control.

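Protocol summary: plate cells (96-well), add compound at 5 concentrations, incubate 48 h, interpolate endpoints linearly. Here, GI50 denotes the concentration required for 50% inhibition of growth. TGI: total growth inhibition.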

The text below walks through data of PubChem BioAssay (NCI).

Some test systems named below: SW-620 colon; LOX IMVI melanoma; IGROV1 ovarian; HCT-15 colon; HOP-92 NSCLC; OVCAR-5 ovarian; MOLT-4 leukemia; SNB-75 CNS; TK-10 renal; OVCAR-4 ovarian; K-562 leukemia; T-47D breast; HL-60(TB) leukemia; NCI-H226 lung.
Holding throughout (assay): DTP human tumour cell line panel, 48 h

Consider `CC(=O)NC(c1nc2cc(C)c(C)cc2[nH]1)c1nc2cc(C)c(C)cc2[nH]1`, for which the total growth inhibition concentration (TGI) in the assay on SW-620 colon is more than 100 µM; in the assay on LOX IMVI melanoma, 59.1 µM; with IGROV1 ovarian, 58.9 µM; in the assay with HCT-15 colon it was 60 µM; with HOP-92 NSCLC it was 43.3 µM; in the assay on OVCAR-5 ovarian, more than 100 µM. In addition, the TGI in the assay with MOLT-4 leukemia is 26.6 µM; in the assay on SNB-75 CNS, 50.7 µM; in the assay on TK-10 renal, 89.1 µM; in the assay on OVCAR-4 ovarian it was 72.8 µM; in the assay on K-562 leukemia it was more than 100 µM; in the assay with T-47D breast, more than 100 µM. This compound came in with a TGI in the assay on HL-60(TB) leukemia of more than 100 µM.

In the case of `NC(=O)CCC(N=C(N)c1csc(C2OC(CO)C(O)C2O)n1)C(=O)O` (centres undefined), the TGI with SW-620 colon, with LOX IMVI melanoma, in the assay with IGROV1 ovarian, in the assay with HCT-15 colon, with OVCAR-5 ovarian and in the assay with MOLT-4 leukemia was more than 100 µM in each case. Moreover, the TGI with SNB-75 CNS, in the assay on TK-10 renal, in the assay on OVCAR-4 ovarian, with K-562 leukemia and in the assay with HL-60(TB) leukemia was more than 100 µM throughout.

On to `COC1C=COC2(C)Oc3c(C)c(O)c4c(O)c(c(/C=N/N5CCN(N)CC5)c(O)c4c3C2=O)NC(=O)C(C)=CC=CC(C)C(O)C(C)C(O)C(C)C(OC(C)=O)C1C` (centres undefined), for which the TGI in the assay with SW-620 colon, with LOX IMVI melanoma, with IGROV1 ovarian, in the assay with HCT-15 colon, in the assay with HOP-92 NSCLC and in the assay on OVCAR-5 ovarian was more than 100 µM each time. The TGI in the assay on MOLT-4 leukemia, in the assay on SNB-75 CNS, in the assay on TK-10 renal, with OVCAR-4 ovarian, in the assay on K-562 leukemia and in the assay with HL-60(TB) leukemia was more than 100 µM each time. Further, the TGI in the assay on NCI-H226 lung was more than 100 µM.

For the compound `O=S(=O)(O)c1ccc(N=Nc2c(O)ccc3cc(Br)ccc23)cc1`, the TGI with SW-620 colon, with LOX IMVI melanoma, with IGROV1 ovarian, in the assay on HCT-15 colon, in the assay on HOP-92 NSCLC and in the assay on OVCAR-5 ovarian was more than 100 µM each time. The TGI in the assay on MOLT-4 leukemia, in the assay with SNB-75 CNS, with TK-10 renal, in the assay on OVCAR-4 ovarian and in the assay with T-47D breast was more than 100 µM throughout.

As to `COc1cccc(/C=N/[N-]C(N)=O)c1[O-].[Ni+2].[OH3+].c1ccc(-c2ccccn2)nc1`, the TGI in the assay on SW-620 colon is more than 100 µM; with LOX IMVI melanoma, more than 100 µM; in the assay on IGROV1 ovarian, more than 100 µM; in the assay with HCT-15 colon it was more than 100 µM; in the assay on HOP-92 NSCLC, 98.1 µM; in the assay with OVCAR-5 ovarian, more than 100 µM. The TGI in the assay with MOLT-4 leukemia, with SNB-75 CNS, with OVCAR-4 ovarian, in the assay on K-562 leukemia, with HL-60(TB) leukemia and in the assay on NCI-H226 lung was more than 100 µM each time. Also, the GI50 in the assay on HL-60(TB) leukemia was 66.9 µM.

As for `COc1cc(OC)c(/C=C\c2cc(/C=C/c3c(OC)cc(OC)cc3OC)c3ccccc3[n+]2C)c(OC)c1`, the total growth inhibition concentration (TGI) in the assay on SW-620 colon was more than 36.3 µM; in the assay with LOX IMVI melanoma, 18.3 µM; with IGROV1 ovarian, 38.3 µM; in the assay on HCT-15 colon it was more than 47.4 µM; in the assay with HOP-92 NSCLC, 8.08 µM; with OVCAR-5 ovarian, 57 µM. Moreover, the TGI with MOLT-4 leukemia was 5.48 µM; in the assay with SNB-75 CNS, 14.2 µM; in the assay on TK-10 renal, more than 49 µM; in the assay on OVCAR-4 ovarian, 36.4 µM; in the assay with T-47D breast, 7.11 µM; with HL-60(TB) leukemia, 5.62 µM. In the assay with NCI-H226 lung, the TGI was 23.6 µM.

With `S=C1CC(c2ccccc2)Sc2ccccc2N1` (centres undefined), the TGI in the assay with LOX IMVI melanoma, in the assay with IGROV1 ovarian, with HCT-15 colon, in the assay on OVCAR-5 ovarian, in the assay on MOLT-4 leukemia and in the assay on SNB-75 CNS was more than 100 µM throughout. Also, the concentration for total growth inhibition (TGI) in the assay on TK-10 renal, in the assay on OVCAR-4 ovarian, in the assay with K-562 leukemia, in the assay on T-47D breast, in the assay with HL-60(TB) leukemia and in the assay with NCI-H226 lung was more than 100 µM each time.

Regarding `[O-][n+]1ccccc1S`, the TGI with SW-620 colon is 23.1 µM; in the assay with LOX IMVI melanoma, more than 100 µM; in the assay on IGROV1 ovarian, 4.09 µM; with HCT-15 colon, more than 100 µM; with HOP-92 NSCLC it was more than 100 µM; in the assay on OVCAR-5 ovarian, more than 100 µM. In addition, the TGI with SNB-75 CNS was more than 100 µM; in the assay on TK-10 renal it was 4.71 µM; in the assay with OVCAR-4 ovarian it was 4.4 µM; in the assay with T-47D breast it was more than 100 µM; in the assay with NCI-H226 lung, more than 100 µM. In addition, the GI50 in the assay with T-47D breast was 6.27 µM.

In the case of `CNC(=O)SCC(N)C(=O)O` (centres undefined), the TGI with SW-620 colon was more than 100 µM; in the assay on LOX IMVI melanoma, more than 89.3 µM; with IGROV1 ovarian, more than 100 µM; in the assay with HCT-15 colon, more than 100 µM; in the assay with HOP-92 NSCLC it was more than 100 µM; with OVCAR-5 ovarian, more than 100 µM. The TGI with MOLT-4 leukemia, in the assay with SNB-75 CNS, in the assay with OVCAR-4 ovarian, in the assay with K-562 leukemia, with HL-60(TB) leukemia and with NCI-H226 lung was more than 100 µM throughout.

`CCC(=O)c1ccc2[nH]c3c(C)c4c(=O)cc(C)[nH]c4c(C)c3c2c1`: the TGI in the assay with SW-620 colon was more than 100 µM; with LOX IMVI melanoma, more than 100 µM; with IGROV1 ovarian, more than 100 µM; in the assay with HCT-15 colon it was more than 100 µM; with HOP-92 NSCLC, 82.3 µM; in the assay with OVCAR-5 ovarian, more than 100 µM. Besides, the TGI in the assay on MOLT-4 leukemia, in the assay on SNB-75 CNS, in the assay on TK-10 renal, in the assay with OVCAR-4 ovarian, in the assay on T-47D breast and with HL-60(TB) leukemia was more than 100 µM throughout. The TGI with NCI-H226 lung was more than 100 µM.

`OC1CCOc2ccccc21` (centres undefined): the TGI with SW-620 colon, in the assay with LOX IMVI melanoma, in the assay on IGROV1 ovarian, in the assay on HCT-15 colon, in the assay on OVCAR-5 ovarian and in the assay on MOLT-4 leukemia was more than 100 µM throughout. Also, the TGI in the assay on TK-10 renal, in the assay with OVCAR-4 ovarian, in the assay on K-562 leukemia, in the assay with HL-60(TB) leukemia and with NCI-H226 lung was more than 100 µM in each case.
